Measured values reported in patent US9856242B2, “5-fluoro-N-(pyridin-2-yl)pyridin-2-amine derivatives containing a sulfone group” (Bayer Pharma Aktiengesellschaft, priority 2014, dated 2018).

Test system: A2780 cells
Test: Proliferation assay (Method 3), A2780
Format: cell-based
Settings: A2780, 96 h; human ovarian carcinoma, 4 days, crystal violet; read-out: Inhibition of A2780 cell proliferation IC50
Experimental: Cultivated tumour cells (HeLa, human cervical tumour cells, ATCC CCL-2; NCI-H460, human non-small cell lung carcinoma cells, ATCC HTB-177; A2780, human ovarian carcinoma cells, ECACC #93112519; DU 145, hormone-independent human prostate carcinoma cells, ATCC HTB-81; HeLa-MaTu-ADR, multidrug-resistant human cervical carcinoma cells, EPO-GmbH Berlin; Caco-2, human colorectal carcinoma cells, ATCC HTB-37; B16F10, mouse melanoma cells, ATCC CRL-6475) were plated at a density of 5,000 cells/well (DU145, HeLa-MaTu-ADR), 3,000 cells/well (NCI-H460, HeLa), 2,500 cells/well (A2780), 1,500 cells/well (Caco-2), or 1,000 cells/well (B16F10) in a 96-well multititer plate in 200 μL of their respective growth medium supplemented 10% fetal calf serum. […] Cell proliferation was determined by staining the cells with crystal violet: the cells were fixed by adding 20 μl/measuring point of an 11% glutaric aldehyde solution for 15 minutes at room temperature. […] The extinction was determined by photometry at a wavelength of 595 nm. The change of cell number, in percent, was calculated by normalization of the measured values to the extinction values of the zero-point plate (=0%) and the extinction of the untreated (0 μm) cells (=100%). […]

IC50: 24 nM
Compound: CS(=O)(=O)Cc1cc(F)nc(Nc2cc(-c3ccc(F)c4ccoc34)c(F)cn2)c1 [Example 2, 5-Fluoro-4-(4-fluoro-1-benzofuran-7-yl)-N-{6-fluoro-4-[(methylsulfonyl)methyl]pyridin-2-yl}pyridin-2-amine]
